Data published in patent US4232035A, “Carbamate pesticidal compounds compositions and methods of use” (priority 1975, dated 1980).

Legend:
Type in all cases: in vivo
[1] = tested on: house flies (Musca domestica, L.); experiment: Fly Bait Test; design: key: A: excellent control; B: partial control; C: no control; conditions: 500 parts per million bait in sugar solution; twenty four hours
Method: (§1) Suspensions of the test compounds were prepared by dissolving one gram of compound in 50 milliliters of acetone in which had been dissolved 0.1 gram (10 percent of the weight of compound) of an alkylphenoxy polyethoxyethanol surfactant, as an emulsifying or dispersing agent. The resulting solution was mixed into 150 milliliters of water to give roughly 200 milliliters of a suspension containing the compound in finely divided form. The thus-prepared stock suspension contained 0.5 percent by weight of compound. The test concentrations in parts per million by weight employed in the tests described hereinbelow were obtained by appropriate dilutions of the stock suspension with water. The test procedures were as follows:
Four to six day old adult house flies (Musca domestica, L.) reared according to the specifications of the Chemical Specialties Manufacturing Association (Blue Book, McNair-Dorland Co., N.Y. 1954; pages 243-244, 261) under controlled conditions of 80°±5° F. and 50±5 percent relative humidity, were the test insects. The flies were immobilized by anesthetizing with carbon dioxide and twenty five immobilized individuals, males and females, were transferred to a cage consisting of a standard food strainer about five inches in diameter which was inverted over a wrapping-paper-covered surface. The test compounds were formulated by diluting the stock suspension with a 10 percent (by weight) sugar solution to give a suspension containing 500 parts of test compound per million parts of final formulation, by weight. Ten milliliters of the test formulation were added to a souffle cup containing a one-inch square of an absorbent cotton pad. This bait cup was introduced and centered on the blotting paper under the food strainer prior to admitting the anesthetized flies. The caged flies were allowed to feed on the bait for twenty four hours, at a temperature of 80°±5° F. and the relative humidity of 50±5 percent.

[2] = tested on: two-spotted mite (Tetranychus urticae Koch); experiment: Mite Foliage Spray Test; design: key: A: excellent control; B: partial control; C: no control; conditions: 500 parts per million foliage spray; six days
Method: as §1
Adults and nymphal stages of the two-spotted mite (Tetranychus urticae Koch), reared on Tendergreen bean plants at 80±5 percent relative humidity, were the test organisms. Infested leaves from a stock culture were placed on the primary leaves of two bean plants six to eight inches in height, growing in a two-and-a-half inch clay pot. 150-200 Mites, a sufficient number for testing, transferred from the excised leaves to the fresh plants in a period of twenty four hours. Following the twenty four hour transfer period, the excised leaves were removed from the infested plants. The test compounds were formulated by diluting the stock suspension with water to give a suspension containing 500 parts of test compound per million parts of final formulation. The potted plants (one pot per compound) were placed on a revolving turntable and sprayed with 100-110 milliliters of test compound formulation by use of a DeVilbiss spray gun set at 40 psig. air pressure. This application, which lasted 25 seconds, was sufficient to wet the plants to run-off. As a control, 100-110 milliliters of a water solution containing acetone and emulsifier in the same concentrations as the test compound formulation, but containing no test compound, were also sprayed on infested plants. The sprayed plants were held at 80±5 percent relative humidity for six days, after which a mortality count of motile forms was made. Microscopic examination for motile forms was made on the leaves of the test plants. Any individual which was capable of locomotion upon prodding was considered living.

[3] = tested on: bean aphid (Aphis fabae Scop.); experiment: Bean Aphid Foliage Spray Test; design: key: A: excellent control; B: partial control; C: no control; conditions: 500 parts per million foliage spray; 24 hour holding period
Method: as §1
Adults and nymphal stages of the bean aphid (Aphis fabae Scop.) reared on potted dwarf nasturtium plants at 65°-70° F. and 50-70 percent relative humidity, constituted the test insects. For testing purposes, the number of aphids per pot was standardized to 100-150 by trimming plants containing excess aphids.
The test compounds were formulated by diluting the stock suspension with water to give a suspension containing 500 parts of test compound per million parts of final formulation.
The potted plants (one pot per compound tested) infested with 100-150 aphids, were placed on a revolving turntable and sprayed with 100-110 milliliters of test compound formulation by use of a DeVilbiss spray gun set at 40 psig. air pressure. This application, which lasted 25 seconds, was sufficient to wet the plants to run-off. As a control, 100-110 milliliters of a water-acetone-emulsifier solution containing no test compound were also sprayed on infested plants. After spraying, the pots were placed on their sides on a sheet of white standard mimeograph paper which had been previously ruled to facilitate counting. Temperature and humidity in the test room during the 24 hour holding period were 65°-70° F. and 50-70 percent, respectively. Aphids which fell onto the paper and were unable to remain standing after being uprighted were considered dead. Aphids remaining on the plants were observed closely for movement and those which were unable to move the length of the body upon stimulation by prodding were considered dead. Percent mortality was recorded for various concentration levels.

[4] = tested on: Mexican bean beetle (Epilachna varivestis, Muls.); experiment: Mexican Bean Beetle Leaf Spray Test; design: key: A: excellent control; B: partial control; C: no control; conditions: 500 parts per million leaf spray; fourth instar larvae; three days
Method: as §1
Fourth instar larvae of the Mexican bean beetle (Epilachna varivestis, Muls.), reared on Tendergreen bean plants at a temperature of 80°±5° F. and 50±5 percent relative humidity, were the test insects.
The test compounds were formulated by diluting the stock suspension with water to give a suspension containing 500 parts of test compound per million parts of final formulation. Potted Tendergreen bean plants of standard height and age were placed on a revolving turntable and sprayed with 100-110 milliliters of test compound formulation by use of a DeVilbiss spray gun set at 10 psig air pressure. This application, which lasted 25 seconds, was sufficient to wet plants to run-off. As a control, 100-110 milliliters of a water-acetone-emulsifier solution containing no test compound were also sprayed on infested plants. When dry, the paired leaves were separated and each was placed in a 9 centimeter Petri dish lined with moistened filter paper. Five randomly selected larvae were introduced into each dish, and the dishes were closed. The closed dishes were labeled and held at a temperature of 80°±5° F. for three days. Although the larvae could easily consume the leaf within 24 to 48 hours, no more food was added. Larvae which were unable to move the length of the body, even upon stimulation, were considered dead.

[5] = tested on: root-knot nematode (Meloidogyne incognita var. acrita); experiment: Nematode Test; design: key: 1: severe galling; equal to untreated control; 2: moderate galling; 3: light galling; 4: very light galling; 5: no galling; conditions: 10 ml of 500 parts per million formulation per jar of soil; cucumber indicator crop, approximately three weeks
Method: as §1
Infective migratory larvae of the root-knot nematode, (Meloidogyne incognita var. acrita) were reared in the greenhouse on roots of Rutgers variety tomato plant. Infected tomato plants were removed from the culture and the roots were chopped very finely. A small amount of inoculum from the roots was added to pint Mason jars containing approximately 180 cc of soil. The jars containing the inoculum and soil were capped and incubated for one week at room temperature. During this period eggs of the nematode hatched and the larvae forms migrated into the soil.
The test compounds were formulated by diluting the stock suspension with water to give a suspension containing 500 parts of test compound per million parts of final formulation. 10 milliliters of the test formulation was added to each of two jars for each dosage treated. As a control 10 milliliters of a water-acetone-emulsifier solution containing no test compound was also added to jars containing nematode larvae. The jars were capped and the contents thoroughly mixed on a kale mill for five minutes. The jars remained capped at room temperature for a period of 48 hours and the contents were then transferred to 3 inch pots. Subsequently, the pots were seeded to cucumber as an indicator crop and placed in the green house where they were cared for in the normal fashion for growing potted cucumber for approximately three weeks. These cucumber plants were then removed from the pots, the soil washed from the roots and the amount of galling visually rated.

[6] = tested on: southern armyworm (Prodenia eridania, (Cram.)); experiment: Southern Armyworm Leaf Spray Test; design: key: A: excellent control; B: partial control; C: no control; conditions: 500 parts per million leaf spray; three days
Method: as §1
Larvae of the southern armyworm (Prodenia eridania, (Cram.)), reared on Tendergreen bean plants at a temperature of 80°±5° F. and a relative humidity of 50±5 percent, constituted the test insects.
The test compounds were formulated by diluting the stock suspension with water to give a suspension containing 500 parts of test compound per million parts of final formulation. Potted Tendergreen bean plants of standard height and age were placed on a revolving turntable and sprayed with 100-110 milliliters of test compound formulation by use of a DeVilbiss spray gun set at 10 psig air pressure. This application, which lasted 25 seconds, was sufficient to wet plants to run-off. As a control, 100-110 milliliters of a water-acetone-emulsifier solution containing no test compound were also sprayed on infested plants. When dry, the paired leaves were separated and each one was placed in a 9 centimeter Petri dish lined with moistened filter paper. Five randomly selected larvae were introduced into each dish and the dishes were closed. The closed dishes were labeled and held at 80°-85° F. for three days. Although the larvae could easily consume the whole leaf within twenty-four hours, no more food was added. Larvae which were unable to move the length of the body, even upon stimulation by prodding, were considered dead. Percent mortality was recorded for various concentration levels.

Structure (SMILES): Cc1ccc(SSN(C)C(=O)ON=C2SC(C)(C)C(=O)N2C)cc1
- H. Fly, pesticidal activity rating [1]: C
- Mite, pesticidal activity rating [2]: C
- Aphid, pesticidal activity rating [3]: C
- M. Bean Beetle, pesticidal activity rating [4]: A
- Nematodes, nematocidal toxicity rating (galling) [5]: 1
- S. Armyworm, pesticidal activity rating [6]: A

Structure (SMILES): CC(C)SSN(C)C(=O)ON=C1SC(C)(C)C(=O)N1C
- H. Fly, pesticidal activity rating [1]: A
- Mite, pesticidal activity rating [2]: C
- Aphid, pesticidal activity rating [3]: A
- M. Bean Beetle, pesticidal activity rating [4]: A
- Nematodes, nematocidal toxicity rating (galling) [5]: 1
- S. Armyworm, pesticidal activity rating [6]: A

Structure (SMILES): CC1OCSC1=NOC(=O)N(C)SSc1ccc(Cl)cc1 (stereo not drawn)
- H. Fly, pesticidal activity rating [1]: A
- Mite, pesticidal activity rating [2]: A
- Aphid, pesticidal activity rating [3]: A
- M. Bean Beetle, pesticidal activity rating [4]: A
- Nematodes, nematocidal toxicity rating (galling) [5]: 1
- S. Armyworm, pesticidal activity rating [6]: A

Structure (SMILES): CC1OCSC1=NOC(=O)N(C)SSC(C)(C)C (stereo not drawn)
- H. Fly, pesticidal activity rating [1]: A
- Mite, pesticidal activity rating [2]: A
- Aphid, pesticidal activity rating [3]: A
- M. Bean Beetle, pesticidal activity rating [4]: A
- Nematodes, nematocidal toxicity rating (galling) [5]: 1
- S. Armyworm, pesticidal activity rating [6]: A

Structure (SMILES): CCCCSSN(C)C(=O)ON=C1SC(C)(C)C(=O)N1C
- H. Fly, pesticidal activity rating [1]: A
- Mite, pesticidal activity rating [2]: A
- Aphid, pesticidal activity rating [3]: A
- M. Bean Beetle, pesticidal activity rating [4]: A
- Nematodes, nematocidal toxicity rating (galling) [5]: 5
- S. Armyworm, pesticidal activity rating [6]: A

Structure (SMILES): CN(SSC1CCCCC1)C(=O)ON=C1SC(C)(C)C(=O)N1C
- H. Fly, pesticidal activity rating [1]: C
- Mite, pesticidal activity rating [2]: C
- Aphid, pesticidal activity rating [3]: A
- M. Bean Beetle, pesticidal activity rating [4]: A
- Nematodes, nematocidal toxicity rating (galling) [5]: 2
- S. Armyworm, pesticidal activity rating [6]: A

Structure (SMILES): CCCCCCCCSSN(C)C(=O)ON=C1SCOC1C (stereo not drawn)
- H. Fly, pesticidal activity rating [1]: A
- Mite, pesticidal activity rating [2]: A
- Aphid, pesticidal activity rating [3]: A
- M. Bean Beetle, pesticidal activity rating [4]: A
- Nematodes, nematocidal toxicity rating (galling) [5]: 1
- S. Armyworm, pesticidal activity rating [6]: A

Structure (SMILES): CN(SSc1ccccc1)C(=O)ON=C1SC(C)(C)C(=O)N1C
- H. Fly, pesticidal activity rating [1]: B
- Mite, pesticidal activity rating [2]: C
- Aphid, pesticidal activity rating [3]: A
- M. Bean Beetle, pesticidal activity rating [4]: A
- Nematodes, nematocidal toxicity rating (galling) [5]: 1
- S. Armyworm, pesticidal activity rating [6]: A

Structure (SMILES): CC(C)SSN(C)C(=O)ON=C1SCOC1C (stereo not drawn)
- H. Fly, pesticidal activity rating [1]: A
- Mite, pesticidal activity rating [2]: A
- Aphid, pesticidal activity rating [3]: A
- M. Bean Beetle, pesticidal activity rating [4]: A
- Nematodes, nematocidal toxicity rating (galling) [5]: 1
- S. Armyworm, pesticidal activity rating [6]: A

Structure (SMILES): CSSN(C)C(=O)ON=C1SCOC1C (stereo not drawn)
- H. Fly, pesticidal activity rating [1]: A
- Mite, pesticidal activity rating [2]: A
- Aphid, pesticidal activity rating [3]: A
- M. Bean Beetle, pesticidal activity rating [4]: A
- Nematodes, nematocidal toxicity rating (galling) [5]: 1
- S. Armyworm, pesticidal activity rating [6]: A

Structure (SMILES): CN(SSc1ccc(C(C)(C)C)cc1)C(=O)ON=C1CSCCS1
- H. Fly, pesticidal activity rating [1]: A
- Mite, pesticidal activity rating [2]: A
- Aphid, pesticidal activity rating [3]: A
- M. Bean Beetle, pesticidal activity rating [4]: A
- Nematodes, nematocidal toxicity rating (galling) [5]: 4
- S. Armyworm, pesticidal activity rating [6]: A

Structure (SMILES): CN(SSC(C)(C)C)C(=O)ON=C1CSCCS1
- H. Fly, pesticidal activity rating [1]: A
- Mite, pesticidal activity rating [2]: A
- Aphid, pesticidal activity rating [3]: A
- M. Bean Beetle, pesticidal activity rating [4]: A
- Nematodes, nematocidal toxicity rating (galling) [5]: 1
- S. Armyworm, pesticidal activity rating [6]: A

Structure (SMILES): CN(SSc1ccc(Cl)cc1)C(=O)ON=C1SC(C)(C)C(=O)N1C
- H. Fly, pesticidal activity rating [1]: B
- Mite, pesticidal activity rating [2]: C
- Aphid, pesticidal activity rating [3]: A
- M. Bean Beetle, pesticidal activity rating [4]: A
- Nematodes, nematocidal toxicity rating (galling) [5]: 1
- S. Armyworm, pesticidal activity rating [6]: A

Structure (SMILES): CN(SSc1ccc(C(C)(C)C)cc1)C(=O)ON=C1SC(C)(C)C(=O)N1C
- H. Fly, pesticidal activity rating [1]: C
- Mite, pesticidal activity rating [2]: C
- Aphid, pesticidal activity rating [3]: C
- M. Bean Beetle, pesticidal activity rating [4]: A
- Nematodes, nematocidal toxicity rating (galling) [5]: 1
- S. Armyworm, pesticidal activity rating [6]: A
